Publication PMC8201677, “Calycosin-loaded nanoliposomes as potential nanoplatforms for treatment of diabetic nephropathy through regulation of mitochondrial respiratory function” (Journal of Nanobiotechnology, 2021)

Columns and labels:
[1] = system: mitochondria in kidney cells of diabetic rats; assay: ROS measurement by DCFH-DA assay in diabetic rats; format: in vivo, Sprague–Dawley rats; conditions: streptozotocin diabetic rats, treated 4 weeks
Description: (§1) Diabetes was induced in mice by injecting streptozotocin purchased from Sigma (USA). Streptozotocin was dissolved in a citrate buffer (pH 6.5, 0.1 M) and injected at a dose of 65 mg/kg intraperitoneally. Blood glucose was measured before the test and one week after streptozotocin injection, and mice with blood glucose above […] were considered diabetic. The calycosin or calycosin-loaded nanoliposomes were dissolved in PBS until it was ready to be injected, and the mice received […] of calycosin-loaded nanoliposomes for 4 weeks after becoming diabetic. Vitamin E (100 mg/kg) was also used as a positive control group. Animals were randomly divided in 5 groups which each group consisted of 6 male mice. […] Protein concentration was measured as standard using bovine serum albumin (BSA). […] Then, the fluorescence intensity of the samples was read at λex/λem of 485 nm/530 nm using a spectrofluorometer (CLARIOstar, Offenburg, Germany).

[2] = In vitro drug release in dialysis media (simulated gastric, intestinal and physiological fluid); format: physicochemical
Description: The EE and DL of the prepared calycosin-loaded nanoliposomes were determined by the dialysis method described previously. Briefly, 700 μL of the prepared calycosin-loaded nanoliposomes solution was added into a dialysis bag (cutoff of 8000), followed by putting into 20 mL of dialysis medium (PBS, pH 7.4). The samples were then shacked (10 h), and centrifuged (3000 rpm, 2 min) to determine the free calycosin concentration in the supernatant. Also, 500 µL of the calycosin-loaded nanoliposomes were added by 1500 μL of methanol, vortexed ([…]), sonicated (5 min), centrifuged (3000 rpm, 2 min) to calculate the total calycosin concentration (C0). 20 mL of the prepared calycosin-loaded nanoliposomes powder (V0) was weighted to calculate the solid powder mass (W0). 25 µl of the sample was injected into a HPLC system containing Phenomenex ODS analytical column (150 mm × 4.6 mm, 5 μm) with a guard column (30 mm × 10 mm, 3 μm) at 40 °C. The mobile phase was a mixture of methanol: double distilled water as follows:0.05 M KH2PO4 = 40:60:5, pH 4.0, with a flow rate of 1.0 ml/min [37]. The simulated gastric fluid was 0.1 mol/L HCl (100 mM, pH 1.2) supplemented with 0.5% Tween-80, the simulated intestinal fluid was PBS buffer (25 mM, pH 6.9) containing 0.5% Tween-80, and the simulated physiological buffer was PBS (150 mM, pH 7.4) containing 0.5% Tween-80. The cumulative drug release was then determined using the following equation [35]: Cumulative release rate%=[V1×(C1⋯+Ci1)+V2×Ci]/Vo×Co×100 where, V1 is the sampling amount, V2 is the volume of the dialysis medium, C1–Ci is the concentration of calycosin at each time point, and V0 and C0 are the volume and concentration of calycosin-loaded nanoliposomes added to the dialysis bag. Stability of calycosin-loaded nanoliposomes was explored for about two months at 37 °C by using particle size and encapsulation efficiency of the reconstituted nanoliposome.

[3] = system: mitochondria in kidney cells of diabetic rats; assay: MTT assay of mitochondrial viability in diabetic rats; format: in vivo, Sprague–Dawley rats; conditions: streptozotocin diabetic rats, treated 4 weeks
Description: as §1, with “100 µl of mitochondrial supernatants were mixed by MTT stock solution (5 mg mL^−1) for 4 h, followed by removing” for “Then,”, “supernatants, addition of 150 μL DMSO for 5 min, and reading the absorbance” for “fluorescence intensity”, “samples” for “samples was read”, “570” for “λex/λem of 485 nm/530”, “microplate reader (BIO-RAD microplate reader-550).” for “spectrofluorometer (CLARIOstar, Offenburg, Germany).”

[4] = Dissolution study in PBS pH 7.4; format: physicochemical
Description: The dissolution studies were performed based on the previous study. Briefly, the dissolution medium (pH 7.4, PBS, 900 ml) under stirring (100 rpm) was added by calycosin-loaded nanoliposomes which is equivalent to 50 mg of drug and at different time intervals, 15 mL samples were removed, replaced, filtrated ([…]), and dissolved in mixed solvent (methanol: distilled water = 5.5:3.5, v/v). Finally, 25 µl of the sample was injected into a HPLC system. The rest of the setup was similar to the above-mentioned explanations.

[5] = Pharmacokinetics in rats after oral administration; format: in vivo; conditions: male, Sprague-Dawley, rat, single dose 30 mg/kg calycosin, plasma
Description: […] male Sprague–Dawley rats were randomly divided into three groups ([…]) as control, treated with calycosin, and treated with calycosin-loaded nanoliposomes (dissolved in 1% ethanol). The doses of calycoin groups were 30 mg/kg for oral administration. After the rats were intragastrically administered with free or Nano-formulated calycosin, the 0.5 mL blood was taken from the fundus venous plexus of each rat at different time intervals. The blood samples were then centrifuged (4000 rpm, 10 min), and the plasma was removed and to stored − 80 °C. The content of the drug in the plasma sample was then calculated by the established LC-MS/MS method based on the previous report.

[6] = system: mitochondria in kidney cells of diabetic rats; assay: Lipid peroxidation (MDA) by TBARS analysis in diabetic rats; format: in vivo, Sprague–Dawley rats; conditions: streptozotocin diabetic rats, treated 4 weeks

COc1ccc(-c2coc3cc(O)ccc3c2=O)cc1O [calycosin]
generation of ROS (DCF fluorescence intensity) [1]: potentially reduced the generation of ROS | time of (almost) complete / 100% release ([2]; simulated gastric medium pH 1.2): ~20 h | cumulative release ([2]; simulated gastric medium pH 1.2, 1 h): about 32% | time of (almost) complete / 100% release ([2]; simulated intestinal fluid pH 6.9): ~100 h | cumulative release ([2]; simulated intestinal fluid pH 6.9, 1 h): about 32% | cumulative release ([2]; simulated intestinal fluid pH 6.9, 20 h): 90% | time of (almost) complete / 100% release ([2]; simulated physiological fluid pH 7.4): ~120 h | cumulative release ([2]; simulated physiological fluid pH 7.4, 1 h): about 7% | cumulative release ([2]; simulated physiological fluid pH 7.4, 20 h): 55% | mitochondrial viability (MTT) in comparison with diabetic rats [3]: significant recovery of mitochondrial viability | dissolution rate [4]: low | AUC(0-inf) [5]: 421 ± 73.3 ng·h/mL | AUC(0-t) [5]: 409 ± 67.3 ng·h/mL | Cmax [5]: 298 ± 35.8 ng/mL | Tmax [5]: 0.19 ± 0.017 h | half-life [5]: 6.98 ± 0.96 h | MRT last ([5]; read-out: MRT0−t): 8.68 ± 1.27 h | MDA level (lipid peroxidation) [6]: remarkable decrease in lipid peroxidation
